Biological target: T1, F508del (Homo sapiens, UniProt P13569, DEL508-508)
T1 construct: expressed in transfected cells
Assay: Protocol 1: membrane potential optical assay (FLIPR III, voltage sensing dye), identification of potentiator compounds
Type: cell-based
Settings: Table 3, compounds of Table 1
How it was run: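 NIH3T3 F508del cells, 27° C × 24 hrs; compound/DMSO pretreat → redistribution dye load → single forskolin addition with Cl⁻ gradient (gluconate-substituted bath, HEPES pH 7.4). FLIPR III membrane-potential fluorescence read.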

T1 sequence (P13569 with tags, fused parts or gaps DEL508-508): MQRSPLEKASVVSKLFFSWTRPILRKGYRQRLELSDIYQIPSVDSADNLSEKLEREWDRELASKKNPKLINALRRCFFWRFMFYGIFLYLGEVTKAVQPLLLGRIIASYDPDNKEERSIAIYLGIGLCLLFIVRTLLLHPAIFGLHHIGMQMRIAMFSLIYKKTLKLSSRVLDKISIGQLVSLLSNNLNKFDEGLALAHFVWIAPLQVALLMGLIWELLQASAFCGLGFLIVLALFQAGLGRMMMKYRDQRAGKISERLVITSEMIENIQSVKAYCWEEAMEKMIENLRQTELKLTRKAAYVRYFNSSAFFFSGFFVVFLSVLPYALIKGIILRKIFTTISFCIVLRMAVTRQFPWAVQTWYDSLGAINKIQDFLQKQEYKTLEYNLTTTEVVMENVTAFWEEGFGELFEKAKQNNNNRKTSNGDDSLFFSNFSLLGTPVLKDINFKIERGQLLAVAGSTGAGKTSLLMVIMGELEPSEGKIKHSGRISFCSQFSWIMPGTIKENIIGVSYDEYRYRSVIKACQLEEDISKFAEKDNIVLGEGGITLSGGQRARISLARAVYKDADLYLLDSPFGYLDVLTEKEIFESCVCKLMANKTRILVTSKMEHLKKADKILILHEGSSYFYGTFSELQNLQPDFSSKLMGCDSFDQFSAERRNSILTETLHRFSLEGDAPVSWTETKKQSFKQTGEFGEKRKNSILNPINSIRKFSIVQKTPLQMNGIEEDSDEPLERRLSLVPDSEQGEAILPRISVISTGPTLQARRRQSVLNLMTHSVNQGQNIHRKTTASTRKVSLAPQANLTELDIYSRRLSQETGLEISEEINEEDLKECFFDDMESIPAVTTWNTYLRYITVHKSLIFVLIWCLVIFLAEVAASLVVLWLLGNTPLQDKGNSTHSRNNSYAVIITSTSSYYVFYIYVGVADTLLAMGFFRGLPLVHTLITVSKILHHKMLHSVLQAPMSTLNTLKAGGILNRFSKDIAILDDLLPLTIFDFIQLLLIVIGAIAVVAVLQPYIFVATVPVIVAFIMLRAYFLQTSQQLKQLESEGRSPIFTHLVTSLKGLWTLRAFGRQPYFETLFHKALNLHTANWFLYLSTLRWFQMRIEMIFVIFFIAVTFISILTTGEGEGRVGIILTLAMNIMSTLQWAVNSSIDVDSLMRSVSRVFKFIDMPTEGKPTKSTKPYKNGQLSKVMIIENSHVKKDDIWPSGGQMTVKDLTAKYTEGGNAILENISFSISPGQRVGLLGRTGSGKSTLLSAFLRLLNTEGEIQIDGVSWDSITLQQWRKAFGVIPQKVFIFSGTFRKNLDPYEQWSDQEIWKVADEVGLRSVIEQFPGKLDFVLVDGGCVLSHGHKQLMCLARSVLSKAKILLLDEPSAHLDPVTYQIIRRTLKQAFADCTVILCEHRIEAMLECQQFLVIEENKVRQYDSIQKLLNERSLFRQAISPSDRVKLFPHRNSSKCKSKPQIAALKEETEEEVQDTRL

For `CC(C)COc1cc(F)cc(-c2ccc(C(=O)NS(=O)(=O)c3cccc(N)n3)c(OCC3CC3)n2)c1` [Compound 1229, N-[(6-amino-2-pyridyl)sulfonyl]-2-(cyclopropylmethoxy)-6-(3-fluoro-5-isobutoxy-phenyl)pyridine-3-carboxamide], which EC30 is on record?
Its EC30 is “+++ (“+++” means <3 uM)”.

For `CC(C)Oc1ccc(-c2ccc(C(=O)NS(=O)(=O)c3cccc(N)n3)c(N3CCC[C@@H]3C(F)(F)F)n2)cn1` [Compound 1230, N-[(6-amino-2-pyridyl)sulfonyl]-6-(6-isopropoxy-3-pyridyl)-2-[(2R)-2-(trifluoromethyl)pyrrolidin-1-yl]pyridine-3-carboxamide], which EC30 is on record?
The EC30 was “++ (“++” means between 3 uM and 10 uM)”.

Which EC30 does the source give for `Cc1ccc(-c2nc3c(cc2C(=O)NS(=O)(=O)c2cccc(N)c2)CCCC3(C)C)cc1` [Compound 1231, (3-aminophenyl)sulfonyl-[8,8-dimethyl-2-(p-tolyl)-6,7-dihydro-5H-quinoline-3-carbonyl]azanide] here?
The EC30 was “+++ (“+++” means <3 uM)”.

How did the EC30 turn out when `Cc1cc(C)c(Oc2nc(C(C)C)ccc2C(=O)NS(=O)(=O)c2cccc(N)n2)c(C)c1` [Compound 1232, N-[(6-amino-2-pyridyl)sulfonyl]-6-isopropyl-2-(2,4,6-trimethylphenoxy)pyridine-3-carboxamide] was run?
Its EC30 is “+++ (“+++” means <3 uM)”.

For `Cc1cc(C)c(Oc2ncc(Cc3ccccc3)cc2C(=O)NS(=O)(=O)c2cccc(N)n2)c(C)c1` [Compound 1233, N-[(6-amino-2-pyridyl)sulfonyl]-5-benzyl-2-(2,4,6-trimethylphenoxy)pyridine-3-carboxamide], which EC30 is on record?
The EC30 was “++ (“++” means between 3 uM and 10 uM)”.

How did the EC30 turn out when `CC(C)COc1cc(-c2ccc(C(=O)NS(=O)(=O)c3ccn[nH]3)c(N3[C@H](C)CC[C@@H]3C)n2)ccc1Cl` [Compound 1234, 6-(4-chloro-3-isobutoxy-phenyl)-2-[(2S,5R)-2,5-dimethylpyrrolidin-1-yl]-N-(1H-pyrazol-5-ylsulfonyl)pyridine-3-carboxamide] was run?
Its EC30 is “+++ (“+++” means <3 uM)”.

With `COc1cccc(-c2ccc(C(=O)NS(=O)(=O)c3ccn[nH]3)c(N3[C@H](C)CC[C@@H]3C)n2)n1` [Compound 1236, 2-[(2S,5R)-2,5-dimethylpyrrolidin-1-yl]-6-(6-methoxy-2-pyridyl)-N-(1H-pyrazol-5-ylsulfonyl)pyridine-3-carboxamide] as the compound, how does the EC30 read?
The EC30 was “++ (“++” means between 3 uM and 10 uM)”.

`Cc1cc(C)c(CN2Cc3ccccc3C2(C)C(=O)NS(=O)(=O)c2ccc[nH]c2=O)c(C)c1` (centres unmarked) [Compound 1237, 1-methyl-N-[(2-oxo-1H-pyridin-3-yl)sulfonyl]-2-[(2,4,6-trimethylphenyl)methyl]isoindoline-1-carboxamide] was tested. Which EC30 did it give?
The EC30 was “++ (“++” means between 3 uM and 10 uM)”.

For `CC(C)COc1cc(F)cc(-c2ccc(C(=O)NS(=O)(=O)c3cccc(N)n3)c(OC(C)C3CCC3)n2)c1` (centres unmarked) [Compound 1238, N-[(6-amino-2-pyridyl)sulfonyl]-2-(1-cyclobutylethoxy)-6-(3-fluoro-5-isobutoxy-phenyl)pyridine-3-carboxamide], which EC30 is on record?
The EC30 was “+++ (“+++” means <3 uM)”.

`Cc1ccc(Oc2nc3c(cc2C(=O)NS(=O)(=O)c2nccnc2N)CCCC3(C)C)c(C)c1` [Compound 1239, N-(3-aminopyrazin-2-yl)sulfonyl-2-(2,4-dimethylphenoxy)-8,8-dimethyl-6,7-dihydro-5H-quinoline-3-carboxamide] was tested. Which EC30 did it give?
Its EC30 is “+++ (“+++” means <3 uM)”.

For `CC(C)Oc1ccc(-c2ccc(C(=O)NS(=O)(=O)c3cccnc3N)c(N3C[C@H](C)CC3(C)C)n2)cn1` [Compound 1240, N-[(2-amino-3-pyridyl)sulfonyl]-6-(6-isopropoxy-3-pyridyl)-2-[(4R)-2,2,4-trimethylpyrrolidin-1-yl]pyridine-3-carboxamide], which EC30 is on record?
The EC30 was “+++ (“+++” means <3 uM)”.

With `CC(C)COc1cc(F)cc(-c2ccc(C(=O)NS(=O)(=O)c3cccc(N)n3)c(N3[C@@H](C)CCC3(C)C)n2)c1` [Compound 1241, N-[(6-amino-2-pyridyl)sulfonyl]-6-(3-fluoro-5-isobutoxy-phenyl)-2-[(5S)-2,2,5-trimethylpyrrolidin-1-yl]pyridine-3-carboxamide] as the compound, how does the EC30 read?
The EC30 was “+++ (“+++” means <3 uM)”.

How did the EC30 turn out when `CC1CN(c2nc(-c3ccnn3C(C)C)ccc2C(=O)NS(=O)(=O)c2cccc(N)n2)C(C)(C)C1` (centres unmarked) [Compound 1242, N-[(6-amino-2-pyridyl)sulfonyl]-6-(2-isopropylpyrazol-3-yl)-2-(2,2,4-trimethylpyrrolidin-1-yl)pyridine-3-carboxamide] was run?
The EC30 was “+++ (“+++” means <3 uM)”.

`Cc1cccc(C)c1Oc1nc(C(C)(C)C)ccc1C(=O)NS(=O)(=O)c1cccc(N)n1` [Compound 1243, N-[(6-amino-2-pyridyl)sulfonyl]-6-tert-butyl-2-(2,6-dimethylphenoxy)pyridine-3-carboxamide] was tested. Which EC30 did it give?
The EC30 was “+++ (“+++” means <3 uM)”.

For `Cc1cc(C)c(Oc2nc(-c3cccc(F)c3F)ccc2C(=O)NS(=O)(=O)c2cccc(N)n2)c(C)c1` [Compound 1244, N-[(6-amino-2-pyridyl)sulfonyl]-6-(2,3-difluorophenyl)-2-(2,4,6-trimethylphenoxy)pyridine-3-carboxamide], which EC30 is on record?
The EC30 was “+++ (“+++” means <3 uM)”.

Which EC30 does the source give for `COC1CCN(c2nc(-c3cc(F)cc(OCC(C)C)c3)ccc2C(=O)NS(=O)(=O)c2ccn[nH]2)CC1` [Compound 1245, 6-(3-fluoro-5-isobutoxy-phenyl)-2-(4-methoxy-1-piperidyl)-N-(1H-pyrazol-5-ylsulfonyl)pyridine-3-carboxamide] here?
The EC30 was “+ (“+” means greater than 10 uM)”.

Which EC30 does the source give for `Cc1ccc(Oc2nc3c(cc2C(=O)NS(=O)(=O)c2cc[nH]n2)CCCC3(C)C)c(C)c1` [Compound 1246, 2-(2,4-dimethylphenoxy)-8,8-dimethyl-N-(1H-pyrazol-3-ylsulfonyl)-6,7-dihydro-5H-quinoline-3-carboxamide] here?
The EC30 was “+++ (“+++” means <3 uM)”.

`CC1CN(c2nc(-c3ccc(OC(C)C)nc3)ccc2C(=O)NS(=O)(=O)c2cccc(N)n2)C(C)(C)C1` (centres unmarked) [Compound 1247, N-[(6-amino-2-pyridyl)sulfonyl]-6-(6-isopropoxy-3-pyridyl)-2-(2,2,4-trimethylpyrrolidin-1-yl)pyridine-3-carboxamide] was tested. Which EC30 did it give?
Its EC30 is “+++ (“+++” means <3 uM)”.

How did the EC30 turn out when `CC(C)Oc1ccc(-c2ccc(C(=O)NS(=O)(=O)c3cccc(N)n3)c(N3CCC[C@H]3C(F)(F)F)n2)cn1` [Compound 1248, N-[(6-amino-2-pyridyl)sulfonyl]-6-(6-isopropoxy-3-pyridyl)-2-[(2S)-2-(trifluoromethyl)pyrrolidin-1-yl]pyridine-3-carboxamide] was run?
The EC30 was “+++ (“+++” means <3 uM)”.

With `COc1ncc(-c2ccc(C(=O)NS(=O)(=O)c3nccnc3N)c(Oc3c(C)cc(C)cc3C)n2)cc1C` [Compound 1249, N-(3-aminopyrazin-2-yl)sulfonyl-6-(6-methoxy-5-methyl-3-pyridyl)-2-(2,4,6-trimethylphenoxy)pyridine-3-carboxamide] as the compound, how does the EC30 read?
The EC30 was “+++ (“+++” means <3 uM)”.

With `Cc1cc(C)c(Oc2nc(C)ccc2C(=O)NS(=O)(=O)c2cccc(N(C)C)n2)c(C)c1` [Compound 1250, N-[[6-(dimethylamino)-2-pyridyl]sulfonyl]-6-methyl-2-(2,4,6-trimethylphenoxy)pyridine-3-carboxamide] as the compound, how does the EC30 read?
Its EC30 is “+++ (“+++” means <3 uM)”.

For `COc1ccc(-c2ccc(C(=O)NS(=O)(=O)c3cccc(N)n3)c(Oc3c(C)cc(C)cc3C)n2)cc1O` [Compound 1251, N-[(6-amino-2-pyridyl)sulfonyl]-6-(3-hydroxy-4-methoxy-phenyl)-2-(2,4,6-trimethylphenoxy)pyridine-3-carboxamide], which EC30 is on record?
The EC30 was “++ (“++” means between 3 uM and 10 uM)”.

With `CCOc1cncc(-c2ccc(C(=O)NS(=O)(=O)c3cccc(N)n3)c(N3CC(C)CC3(C)C)n2)n1` (centres unmarked) [Compound 1252, N-[(6-amino-2-pyridyl)sulfonyl]-6-(6-ethoxypyrazin-2-yl)-2-(2,2,4-trimethylpyrrolidin-1-yl)pyridine-3-carboxamide] as the compound, how does the EC30 read?
The EC30 was “+++ (“+++” means <3 uM)”.

Which EC30 does the source give for `Cc1cc(C)c(Oc2ncc(CCc3ccccc3)cc2C(=O)NS(=O)(=O)c2cccc(N)n2)c(C)c1` [Compound 1253, N-[(6-amino-2-pyridyl)sulfonyl]-5-phenethyl-2-(2,4,6-trimethylphenoxy)pyridine-3-carboxamide] here?
The EC30 was “++ (“++” means between 3 uM and 10 uM)”.

How did the EC30 turn out when `COc1cc(-c2cc(F)cc(OCC(C)C)c2)nc(N2[C@H](C)CC[C@@H]2C)c1C(=O)NS(=O)(=O)c1cccc(N)n1` [Compound 1254, N-[(6-amino-2-pyridyl)sulfonyl]-2-[(2S,5R)-2,5-dimethylpyrrolidin-1-yl]-6-(3-fluoro-5-isobutoxy-phenyl)-4-methoxy-pyridine-3-carboxamide] was run?
Its EC30 is “+++ (“+++” means <3 uM)”.

`CCOc1cc(F)cc(-c2ccc(C(=O)NS(=O)(=O)c3cccc(N)n3)c(Oc3c(C)cc(C)cc3C)n2)c1` [Compound 1255, N-[(6-amino-2-pyridyl)sulfonyl]-6-(3-ethoxy-5-fluoro-phenyl)-2-(2,4,6-trimethylphenoxy)pyridine-3-carboxamide] was tested. Which EC30 did it give?
Its EC30 is “+++ (“+++” means <3 uM)”.

With `CC(C)(C)c1cc(C(=O)NS(=O)(=O)c2cccc(N)c2)n(Cc2cccc3cc[nH]c23)n1` [Compound 1256, N-(3-aminophenyl)sulfonyl-5-tert-butyl-2-(1H-indol-7-ylmethyl)pyrazole-3-carboxamide] as the compound, how does the EC30 read?
The EC30 was “++ (“++” means between 3 uM and 10 uM)”.

`CC(C)COc1cc(F)cc(-c2ccc(C(=O)NS(=O)(=O)c3ccn[nH]3)c(N3CCCC3Cc3ccccc3)n2)c1` (centres unmarked) [Compound 1257, 2-(2-benzylpyrrolidin-1-yl)-6-(3-fluoro-5-isobutoxy-phenyl)-N-(1H-pyrazol-5-ylsulfonyl)pyridine-3-carboxamide] was tested. Which EC30 did it give?
Its EC30 is “++ (“++” means between 3 uM and 10 uM)”.

How did the EC30 turn out when `CC(C)COc1cc(F)cc(-c2ccc(C(=O)NS(=O)(=O)c3cccc(N)n3)c(N3CCCC3C(C)C)n2)c1` (centres unmarked) [Compound 1258, N-[(6-amino-2-pyridyl)sulfonyl]-6-(3-fluoro-5-isobutoxy-phenyl)-2-(2-isopropylpyrrolidin-1-yl)pyridine-3-carboxamide] was run?
Its EC30 is “+++ (“+++” means <3 uM)”.

From patent US10758534B2 (Vertex Pharmaceuticals Incorporated, priority 2014, dated 2020)
